Entries after “also recorded” stand apart in the source; their conditions may differ.
Columns and labels:
V79 cells [1] = assay: Clonogenicity, killing of V79 cells using photodynamic therapy (Table 3); format: cell-based, Chinese hamster; details: for photosensitizing activity, killing V79 cells (in words): discussion of Table 3
Protocol: Using the cell culture methods described above, V79 cells Chinese hamster lung fibroblasts were treated with either 0.5 or 1.0 μM of the phthalocyanines listed in Table 3. About 18 hours thereafter, the cells were irradiated with increasing doses of 675 nm broad band red light from a 500 W tungsten-halogen lamp fitted with a 600 nm high pass filter, to determine the light dosage that would kill 90% of the phthalocyanine treated cells. Where 90% of the cells were not killed, the maximum percent of cells killed were determined, (expressed as % survival) and the related light dosage recorded.

RIF-1 tumors = assay: PDT of RIF-1 implanted tumors (Table 7); format: in vivo, C3H/HeN mice; details: for effect on tumor volume / growth (in words): 1 mg/kg; for Doubling Time of Initial Tumor Volume after PDT: 1 mg/kg in corn oil, 675 nm, 135 J/cm^2
Protocol: The relative effectiveness at reducing tumor volume of selected phthalocyanine compounds at a given dosage was compared in vivo. RIF-1, i.e., radiation-induced fibrosarcoma, tumors were implanted into the backs of C3H/HeN mice. One tumor was implanted per mouse. Each of the phthalocyanine compounds listed in Table 7 was sonicated and vortexed in corn oil to produce a suspension. When the tumors reached […] in diameter and 2-3 mm in thickness, each mouse received 1 mg/kg in 0.1 ml of the corn oil, of the phthalocyanine suspension. For comparison, select mice received a conventional photosensitizer; either 5 mg/kg of chloroaluminum phthalocyanine tetrasulfonate, herein also referred to as "AlPcTS" in phosphate buffered saline or 5 mg/kg of Photofrin®-II in 5% dextrose. Twenty-four hours after the photosensitizers were administered, the tumors were irradiated with visible radiation delivered by an argon-pumped dye laser. The mice that received a phthalocyanine photosensitizer received light having a wavelength of 675 nm and the mice that received the Photofrin® II photosensitizer received light having a wavelength of 630 nm. Each tumor received 135 J/cm^2 of radiation. Tumor size was measured every day using calipers. The initial tumor volume was 50±10 mm^3. Tumor volume was calculated according to the hemiellipsoid model by the formula: [formula] Where l is length Where W is width

V79 cells [2] = system: V79 cells
Protocol: V79 cells Chinese hamster lung fibroblasts were cultured using the cell culture methods described above. […] When the filters were dry, the phthalocyanines were extracted into ethanol and the absorption determined at the peak wavelength, usually 668 nm.

L5178Y cells = assay: Induction of apoptosis (DNA fragmentation) in L5178Y-R cells (Table 6); format: cell-based, mouse; details: for apoptosis (in words): various concentrations and fluences
Protocol: (§1) Mouse lymphoma L5178y-R (hereinafter also referred to as "LY-R") cells were grown in suspension culture as described in Ramakrishnan N., Oleinick, N. L. Clay, M. E., Horng, M. F., Antunez, A. R., and Evans H. H., DNA lesions and DNA degradation in mouse lymphoma L5178Y cells after photodynamic treatment sensitized by chloroaluminum phthalocyanine. Photochem. Photobiol. 50, 373-378, 1989 and Agarwal, M. L., Clay, M. E., Harvey, E. J., Evans, H. H., Antunez, A. R., and Oleinick, N. L. Photodynamic therapy induces rapid cell death by apoptosis in L5178Y mouse lymphoma cells. Cancer Res., 51, 5993-5996, 1991.
(§2) The cells were used while in exponential growth. Stock solutions of either 0.5 or 1 mM of PcIV, PcXII, PcX, PcXVIII were prepared in dimethylformamide unless otherwise indicated and added to the 10 mL medium at a rate of 1 μL per mL. After allowing 18 hours for uptake of the phthalocyanine into the cells, the flasks containing the cultures were placed on a glass exposure tray above a 500-W tungsten-halogen lamp. The exposure tray was fitted with a 600-nm high-pass filter. Flasks were exposed to various fluences of red light (up to 30 kJ/m^2) at a fluence rate of approximately 74 W/m^2). After irradiation, the cells were collected by centrifugation.
(§3) For measurement of clonogenic cell survival, aliquots were plated in medium containing soft agar as described in Ramakrishnan N., Oleinick, N. L. Clay, M. E., Horng, M. F., Antunez, A. R., and Evans H. H., DNA lesions and DNA degradation in mouse lymphoma L5178Y cells after photodynamic treatment sensitized by chloroaluminum phthalocyanine. Photochem. Photobiol. 50, 373-378, 1989. The aliquots were plated in sufficient numbers to produce 50-200 colonies. The dishes were kept in an incubator at 37° C. in an atmosphere of 5% CO2 and 95% air for 10-14 days to allow viable cells to form colonies. Colonies were counted by eye. Controls treated with the phthalocyanine alone had plating efficiencies of ~90%. The plating efficiencies of the treated cells are normalized to the plating efficiencies of control cells in each experiment. For measurement of the induction of apoptosis, DNA was isolated from the treated and control cells 2 hours after photodynamic therapy, subjected to electrophoresis on 1.5% agarose, stained with ethidium bromide, and visualized by UV transillumination, as described in Agarwal et. al. The results are shown in Tables 4, 5 and 6 and in FIG. 3.
Cells were treated with various concentrations of the compounds listed in the table and various light fluences. DNA gels were prepared and examined for the characteristic "ladder" pattern of DNA fragments. For each Pc, the minimum total PDT dose tested (calculated as the product of the minimum phthalocyanine concentration and the minimum fluence) which produced visible DNA fragments is recorded. […] PcXVIII was also added at 0.5 and 1.0 μM.

L5178Y-R (LY-R) cells = assay: Clonogenic survival of PDT-treated L5178Y-R cells (Tables 4 and 5, FIG. 3); format: cell-based, mouse; details: 0.5 μM; for activity relative to PcXII: from Table 5; for LD 90: fluence reducing survival to 10%; for LD50: fluence reducing survival to 50%
Protocol: as §1, §2, §3
In Table 4 each phthalocyanine was present at 0.5 μM, and the normalized plating efficiencies are presented as mean and standard deviation at each fluence tested. […] This relative activity of these four phthalocyanines is the same as obtained from screening in V79 cells.
PcXII when present in the culture medium at 0.5 μM requires less light, that is the lowest fluence, to kill either 50% […] of the cells. PcIV is about 80% as active as PcXII, PcX is 44% as active as PcXII and PcXVIII is 22% as active as PcXII.

[3] = 0.5 μM, 18 h, light dose killing 90% of cells

Compound | effect on tumor volume / growth (in words) (RIF-1 tumors) | Doubling Time of Initial Tumor Volume after PDT (RIF-1 tumors) [days] | Uptake (from Table 2) (V79 cells [2]) [n Moles/10^6 cells/μM] | Uptake into V79 cells, composite value (V79 cells [2]) [n Moles/10^6 cells/μM] | LD 90 (V79 cells [1]; [3]) [kJ/m^2] | Minimum Demonstrated Condition to induce apoptosis: C × F (L5178Y cells; 0.5 μM) [μm × kJ/m^2] | Minimum Demonstrated Condition to induce apoptosis: Fluence (L5178Y cells; 0.5 μM) [kJ/m^2] | Minimum Demonstrated Condition to induce apoptosis: C × F (L5178Y cells; 1.0 μM) [μm × kJ/m^2] | Minimum Demonstrated Condition to induce apoptosis: Fluence (L5178Y cells; 1.0 μM) [kJ/m^2] | apoptosis (in words) (L5178Y cells) | other results
SiPc[OSi(CH3)2 (CH2)4 NHSO2 CH3 ]2 [Compound VIII] | the doubling of tumor volume was delayed in the animals treated with each of the compounds except PcVIII | 4 | 0.2 | 0.2 |  |  |  |  |  |  | Maximum Effect (% survival) (V79 cells [1]; 1 μM, at 30 kJ/m^2): 94%; induction of apoptosis (L5178Y cells; 1 μM at a fluence of 30 kJ/m^2): did not induce apoptosis
HOSiPcOSi(CH3)2 (CH2)3 N[(CH2)3 N(CH3)2 ]2 [Compound XXVII] |  |  | 1.5 | 1.5 | 6.8 |  |  |  |  |  | uptake by V79 cells (in words) (V79 cells [2]): taken up particulary well
CCN(CCC[Si](C)(C)O[Si]1(O[Si](C)(C)CCCN(CC)CCN(C)C)n2c3c4ccccc4c2N=C2N=C(N=c4c5ccccc5c(n41)=NC1=NC(=N3)c3ccccc31)c1ccccc12)CCN(C)C [Compound XVIII, SiPc[OSi(CH3)2 (CH2)3 N(CH2 CH3)(CH2)2 N(CH3)2]2] | particularly effective in reducing tumor volume | 12 |  |  |  | 5.0 | 10.0 | 3.0 | 3.0 | minimum value of C×F differed only slightly for the two conditions | LD 90 (V79 cells [1]; 1 μM, 18 h): 7 kJ/m^2; photosensitizing activity, killing V79 cells (in words) (V79 cells [1]): good activity; activity relative to PcXII (L5178Y-R (LY-R) cells): 22%; LD 90 (L5178Y-R (LY-R) cells): 7.81 kJ/m^2; LD50 (L5178Y-R (LY-R) cells): 5.00 kJ/m^2; photosensitizer activity in LY-R cells (in words) (L5178Y-R (LY-R) cells; listed as PcXVIII): active photosensitizers; also recorded: least active
C[Si](C)(CCCCNS(C)(=O)=O)O[Si]1(O)n2c3c4ccccc4c2N=C2N=C(N=c4c5ccccc5c(n41)=NC1=NC(=N3)c3ccccc31)c1ccccc12 (centres unmarked) [Compound IX, HOSiPCOSi(CH3)2 (CH2)4 NHSO2 CH3] | particularly effective in reducing tumor volume | 11 | 0.3 | 0.3 |  | 4.0 | 8.0 | 12.0 | 12.0 | activity increases and then decreases as the concentration is raised | Maximum Effect (% survival) (V79 cells [1]; 0.5 μM, at 9 kJ/m^2): 44%; Minimum Demonstrated Condition to induce apoptosis: C × F (L5178Y cells; 0.3 μM): 3.6 μm × kJ/m^2; Minimum Demonstrated Condition to induce apoptosis: Fluence (L5178Y cells; 0.3 μM): 12.0 kJ/m^2
C[Si](C)(CCCCN)O[Si]1(O[Si](C)(C)CCCCN)n2c3c4ccccc4c2N=C2N=C(N=c4c5ccccc5c(n41)=NC1=NC(=N3)c3ccccc31)c1ccccc12 [Compound VII, SiPc[OSi(CH3)2 (CH2)4 NH2]2] |  |  | 0.2 | 0.2 |  | 1.5 | 3.0 |  |  |  | LD 90 (V79 cells [1]; 0.5 μM, preplated data only): 4 kJ/m^2; photosensitizing activity, killing V79 cells (in words) (V79 cells [1]; listed as PcVII): most active at killing V79 cells; also recorded: one of the better photosensitizers; uptake by V79 cells (in words) (V79 cells [2]): poor uptake
CCN(CCC[Si](C)(C)O[Si]1(O)n2c3c4ccccc4c2N=C2N=C(N=c4c5ccccc5c(n41)=NC1=NC(=N3)c3ccccc31)c1ccccc12)CCN(C)C (centres unmarked) [Compound X, HOSiPcOSi(CH3)2 (CH2)3 N(CH2 CH3)(CH2)2 N(CH3)2] |  |  | 0.7 | 0.7 | 7 | 3.0 | 6.0 | 3.0 | 3.0 | the same minimum value for the C×F product was obtained in both cases | photosensitizer activity in LY-R cells (in words) (L5178Y-R (LY-R) cells): active photosensitizers; activity relative to PcXII (L5178Y-R (LY-R) cells): 44%; LD 90 (L5178Y-R (LY-R) cells): 4.19 kJ/m^2; LD50 (L5178Y-R (LY-R) cells): 2.38 kJ/m^2
CN1CCN(CCC[Si](C)(C)O[Si]2(O)n3c4c5ccccc5c3N=C3N=C(N=c5c6ccccc6c(n52)=NC2=NC(=N4)c4ccccc42)c2ccccc23)CC1 (centres unmarked) [Compound XXVIII, HOSiPcOSi(CH3)2 (CH2)3 NC4 H8 NCH3] |  | 24 |  |  | 1.8 |  |  |  |  |  | photosensitizing activity, killing V79 cells (in words) (V79 cells [1]; listed as Pc XXVIII): photodynamic killing efficiency is superior to PcXII; photosensitizing activity, killing V79 cells (in words) (V79 cells [1]; listed as PcXXVIII): most active at killing V79 cells; also recorded: highest activity in killing V79 cells of all of the phthalocyanines; effect on tumor volume / growth (in words) (RIF-1 tumors; listed as Pc XXVIII): significantly impair the growth of the tumors; effect on tumor volume / growth (in words) (RIF-1 tumors; listed as PcXXVIII): particularly effective in reducing tumor volume; Minimum Demonstrated Condition to induce apoptosis: C × F (L5178Y cells; 0.3 μM): 0.9 μm × kJ/m^2; Minimum Demonstrated Condition to induce apoptosis: Fluence (L5178Y cells; 0.3 μM): 3.0 kJ/m^2

From patent publication US5484778A, “Phthalocyanine photosensitizers for photodynamic therapy and methods for their use” (priority 1993, dated 1996)
